Laboratory results as given in patent publication US10702498B2 (priority 2015, dated 2020).
Where two headings read alike, the source gives them in different places.

Legend:
hMOR + Gqi5 = hMOR + Gqi5 (Homo sapiens (Human), UniProt P35372); test: IP accumulation assay; assay type: cell-based; details: % morphine
humanDOR = humanDOR (Homo sapiens (Human), UniProt P41143); test: Receptor binding, [3H]diprenorphine
hKOR = hKOR (Homo sapiens (Human), UniProt P41145); test: Receptor binding, [3H]diprenorphine
MOR [1] = molecular target: T1, MOR (Homo sapiens (Human), UniProt P35372); test: Functional annotation (MOR agonist / antagonist), method not stated
[2] = molecular target: human μOR β-arrestin2 recruitment + GRK2 (Homo sapiens (Human), UniProt P35372); test: β-Arrestin2 recruitment with GRK2 co-expression (BRET); assay type: cell-based
[3] = molecular target: T2, μOR β-arrestin2 recruitment (Homo sapiens (Human), UniProt P35372); test: β-Arrestin2 recruitment without GRK2 co-expression (BRET); assay type: cell-based
μOR [4] = molecular target: T3, μOR (Homo sapiens (Human), UniProt P35372); test: cell-based; assay type: cell-based
MOR [5] = molecular target: T1, MOR; test: Receptor binding, [3H]diprenorphine; details: binding affinity Ki [nM] hMOR
μOR [6] = molecular target: T3, μOR; test: BRET-based cAMP accumulation assay (Gi/o signaling, SAR of PZM21-29); assay type: cell-based; details: for loss of potency in Gi/o signaling assay: compared to parent reference compound (PZM22)
mice [7] = test: Whole body plethysmography (respiration); details: mouse; equianalgesic doses PZM21 40 mg/kg, TRV130 […], morphine 10 mg/kg
κOR [8] = molecular target: T4, κOR (Homo sapiens (Human), UniProt P41145); test: Gi/o Glosensor assay (agonist and antagonist mode)
mice [9] = test: Conditioned place preference; assay type: in vivo; details: mouse
Protocol: On day 1 (preconditioning day), mice were placed in the central chamber and allowed to explore freely for 30 minutes. Time spent in each compartment was used to estimate baseline chamber preferences and mice showing specific chamber bias more than 70% were not studied further. On days 2-9 (conditioning days) mice were injected with either vehicle or drug and paired with either the white mesh or the black rod chambers. All mice received vehicle on days 2, 4, 6, 8 and drug on days 3, 5, 7, 9. On day 10 (test day), mice were again placed in the central chamber as on day 1 and allowed to explore freely for 30 minutes. Time spent in each chamber was expressed as percentage preference.

κOR [10] = molecular target: T4, κOR; assay type: binding; details: no Ki given
[11] = molecular target: T2, μOR β-arrestin2 recruitment; test: β-Arrestin recruitment, PathHunter enzyme complementation assay (DiscoveRx OPRM1 CHO-K1); assay type: cell-based; details: read-out: Arrestin recruitment (PathHunter) Emax (%) μOR
nociceptin receptor = nociceptin receptor (Homo sapiens (Human), UniProt P41146); test: Gi/o Glosensor assay; details: read-out: Gi/o (Glosensor) Emax (%) nociceptin

Chain of humanDOR (P41143 whole entry): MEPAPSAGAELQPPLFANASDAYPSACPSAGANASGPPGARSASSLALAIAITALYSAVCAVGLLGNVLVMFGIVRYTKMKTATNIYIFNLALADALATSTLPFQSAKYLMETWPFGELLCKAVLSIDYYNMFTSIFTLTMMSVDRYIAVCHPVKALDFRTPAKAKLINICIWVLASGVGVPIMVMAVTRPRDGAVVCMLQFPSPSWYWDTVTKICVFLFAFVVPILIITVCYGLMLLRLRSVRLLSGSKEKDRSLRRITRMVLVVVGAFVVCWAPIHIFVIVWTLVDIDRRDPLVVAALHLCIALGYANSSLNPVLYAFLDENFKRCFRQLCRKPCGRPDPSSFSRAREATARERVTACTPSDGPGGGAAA
Chain of hKOR (P41145 whole entry): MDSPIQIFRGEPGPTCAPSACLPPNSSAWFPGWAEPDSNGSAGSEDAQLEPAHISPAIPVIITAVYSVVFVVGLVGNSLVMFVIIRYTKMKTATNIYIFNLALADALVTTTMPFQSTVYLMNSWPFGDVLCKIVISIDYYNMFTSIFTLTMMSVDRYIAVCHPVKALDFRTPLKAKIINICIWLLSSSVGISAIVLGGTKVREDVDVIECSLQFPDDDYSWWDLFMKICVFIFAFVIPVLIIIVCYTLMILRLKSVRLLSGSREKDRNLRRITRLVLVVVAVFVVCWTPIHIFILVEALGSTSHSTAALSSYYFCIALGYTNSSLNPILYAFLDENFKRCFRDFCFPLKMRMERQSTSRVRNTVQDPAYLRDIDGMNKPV
T1 sequence (P35372 whole entry): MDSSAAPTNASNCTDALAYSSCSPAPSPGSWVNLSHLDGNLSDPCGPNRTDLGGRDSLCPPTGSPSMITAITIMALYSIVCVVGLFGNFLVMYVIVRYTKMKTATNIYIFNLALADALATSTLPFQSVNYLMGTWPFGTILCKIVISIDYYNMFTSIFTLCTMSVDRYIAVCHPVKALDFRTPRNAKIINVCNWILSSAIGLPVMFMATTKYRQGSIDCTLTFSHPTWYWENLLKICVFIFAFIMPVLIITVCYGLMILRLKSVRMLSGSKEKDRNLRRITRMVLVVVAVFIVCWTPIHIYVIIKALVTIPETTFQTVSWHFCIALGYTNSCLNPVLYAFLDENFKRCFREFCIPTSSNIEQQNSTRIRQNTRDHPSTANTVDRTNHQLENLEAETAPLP

## C[C@H](Cc1ccsc1)NC(=O)NC[C@H](Cc1ccc(O)cc1)N(C)C (stereo in doubt) [BD 122LR]
hMOR + Gqi5
  hMOR + Gqi5 IP accumulation assay efficacy a: a: 17%
humanDOR
  Ki: 88 ± 16 nM
humanDOR; read-out: binding affinity Ki [nM] hDOR
  Ki: 88 nM
hKOR; binding affinity Ki [nM] hKOR
  Ki: 190 nM
hKOR; hKOR [3H]dyprenorphine Ki
  Ki: 190 ± 23 nM

## Cc1cc(O)cc(C)c1C[C@@H](CNC(=O)N[C@H](C)Cc1ccsc1)N(C)C [BD 131LR, 1-((S)-2-(dimethylamino)-3-(4-hydroxy-2,6-dimethylphenyl)propyl)-3-((R)-1-(thiophen-3-yl)propan-2-yl)urea]
hMOR + Gqi5; @ 10 μM
  hMOR + Gqi5 IP accumulation assay efficacy a @ 10 μM: @ 10 μM a: 10%

## CN(C)[C@H](CNC(=O)NCCc1ccsc1)Cc1ccc(O)cc1 [DD 16, (S)-1-(2-(dimethylamino)-3-(4-hydroxyphenyl)propyl)-3-(2-(thiophen-3-yl)ethyl)urea]
MOR [1]; read-out: MOR agonist (potency printed under structure)
  EC50: 58 nM
[2]; GRK2 co-expressed
  Arrestin + GRK2 pEC50: 6.843
[3]
  Arrestin pEC50: 6.387
μOR [4]
  Gi/o pEC50: 8.122

## Cc1cc(O)cc(C)c1C[C@@H](CNC(=O)NCCc1ccsc1)N(C)C [DD 34L, (S)-1-(2-(dimethylamino)-3-(4-hydroxy-2,6-dimethylphenyl)propyl)-3-(2-(thiophen-3-yl)ethyl)urea]
MOR [1]
  functional mode: DD 34L (ANTAGONIST) [drawing 446]
hMOR + Gqi5
  hMOR + Gqi5 IP accumulation assay efficacy a: a: <5%

## Cc1cc(O)cc(C)c1C[C@@H](CNC(=O)NCCN1C(=O)C=CC1=O)N(C)C [DD 144, (S)-1-(2-(dimethylamino)-3-(4-hydroxy-2,6-dimethylphenyl)propyl)-3-(2-(2,5-dioxo-2,5-dihydro-1H-pyrrol-1-yl)ethyl)urea]
MOR [1]
  functional mode: DD 144 (ANTAGONIST, Covalent) [drawing 452]

## CN(C)[C@H](CNC(=O)NCCc1cccc(F)c1)Cc1ccc(O)cc1 [DDLM-10, (S)-1-(2-(dimethylamino)-3-(4-hydroxyphenyl)propyl)-3-(3-fluorophenethyl)urea]
humanDOR
  Ki: 250 nM
hKOR; binding affinity Ki [nM] hKOR
  Ki: 170 nM
MOR [5]
  Ki: 36 nM

## CN(C)[C@H](CNC(=O)NCCc1ccc(F)cc1)Cc1ccc(O)cc1 [DDLM-15, (S)-1-(2-(dimethylamino)-3-(4-hydroxyphenyl)propyl)-3-(4-fluorophenethyl)urea]
humanDOR
  Ki: 250 nM
hKOR; binding affinity Ki [nM] hKOR
  Ki: 190 nM
MOR [5]
  Ki: 27 nM

## CN(CC1CC1)[C@H](CNC(=O)NCCc1ccccc1)Cc1ccc(O)cc1 [PZM27, (S)-1-(2-((Cyclopropylmethyl)(methyl)amino)-3-(4-hydroxyphenyl)propyl)-3-phenethylurea×CF3COOH]
μOR [6]
  agonist efficacy / potency in Gi/o signaling assay: decreased efficacy
  loss of potency in Gi/o signaling assay: 30 fold

## CN(C=O)[C@H](CNC(=O)NCCc1ccccc1)Cc1ccc(O)cc1 [PZM28, (S)—N-(1-(4-Hydroxyphenyl)-3-(3-phenethylureido)propan-2-yl)-N-methylformamide]
μOR [6]
  loss of potency in Gi/o signaling assay: 1000 fold

## CN(C)[C@H](CNC(=O)NCCc1cn(CCSSCCN=[N+]=[N-])nn1)Cc1ccc(O)cc1 [PZM29, (S)-1-(2-(1-(2-((2-Azidoethyl)disulfanyl)ethyl)-1H-1,2,3-triazol-4-yl)ethyl)-3-(2-(dimethylamino)-3-(4-hydroxyphenyl)propyl)urea×CF3COOH]
μOR [6]
  agonist efficacy / potency in Gi/o signaling assay: retains its efficacy as an agonist

## COc1ccsc1CNCC[C@@]1(c2ccccn2)CCOC2(CCCC2)C1 [TRV130, reference compound]
Mice [7]
  respiration frequency / respiratory depression: significantly depresses respiration at 15 minutes
κOR [8]
  κOR agonist activity: activates KOR with similar potency to morphine
[2]
  arrestin recruitment with over-expressed GRK2: we observe arrestin recruitment
Mice [9]
  conditioned place preference: not significant relative to vehicle
[3]
  β-arrestin2 recruitment in the absence of GRK2: no β-arrestin2 recruitment

## CN(Cc1nnc(C2CC2)n1C)C(=O)NC[C@@H](Cc1ccccc1)N(C)C [compound 10]
κOR [10]
  κOR binding, given as <50%: <50%

## CN(C)[C@@H](CNC(=O)NC[C@@H](O)c1cnn(C)c1)Cc1ccccc1 [compound 11]
κOR [10]
  κOR binding, given as <50%: <50%

## C[C@H](Cc1ccsc1)NC(=O)NC[C@@H](Cc1ccccc1)N(C)C [compound 12]
[11]
  Emax: 9.4%
μOR [4]; read-out: Gi/o (Glosensor) Emax (%) μOR
  Emax: 88%
Nociceptin receptor
  Emax: 43%

## Cc1nc(CNC(=O)NC[C@@H](Cc2ccccc2)N(C)C)sc1C [compound 15]
κOR [10]
  κOR binding, given as <50%: <50%
